Results published in patent US8450325B2, “Methods for reducing the recurrence of cardiac arrhythmia” (ChanRx Corp., priority 2002, dated 2013).
Entries after “also recorded” stand apart in the source; their conditions may differ.

Assays:
[1] = target: hKv1.5 channel (Homo sapiens, UniProt P22460); assay: voltage clamp current block, hKv1.5 channel in stably transfected mammalian cells; format: cell-based; conditions: 0.1 Hz, 6 bpm
[2] = target: T1, native cardiac L-type calcium channel (gpCaCh, ICa,L) (Cavia porcellus, UniProt O35505); assay: voltage clamp current block, native cardiac L-type calcium channel in guinea pig cardiomyocytes; format: cell-based; conditions: 0.05 Hz, 3 beats per minute
T1 construct: native cardiac L-type calcium channel expressed in guinea pig cardiomyocytes; endogenous in cells; host or cells: guinea pig cardiomyocytes

[3] = target: hKvLQT1/hminK (IKs) channel (Homo sapiens, UniProt P51787); assay: voltage clamp current block, hKvLQT1/hminK channel in stably transfected mammalian cells; format: cell-based; conditions: 0.067 Hz, 4 bpm, unit inferred; read-out: IC50, block of IKs (hKvLQT1/hminK) channels
[4] = target: hHNa ion channel (Homo sapiens, UniProt Q14524); assay: voltage clamp current block, hHNa channel in stably transfected mammalian cells; format: cell-based; conditions: 0.1 Hz, 6 bpm
Excerpt: (§1) Nonlinear least squares fits of the current ratio data yielded the best fit value for the IC50 concentration. A positive control was included for each channel tested in the study.

[5] = target: hERG (IKr) channel (Homo sapiens, UniProt Q12809); assay: in vitro
Excerpt: as §1

[6] = test system: dog Purkinje fibers; assay: duration of the cardiac action potential in dog Purkinje fibers; set-up: dose or concentration left out as unconfirmed
[7] = target: T2, rKv4.3 (Ito) channel (Rattus norvegicus, UniProt Q62897); assay: voltage clamp current block, rKv4.3 channel in stably transfected mammalian cells; format: cell-based; conditions: Ito (rKv4.3); 0.067 Hz, 4 bpm
T2 sequence (Q62897 1-655): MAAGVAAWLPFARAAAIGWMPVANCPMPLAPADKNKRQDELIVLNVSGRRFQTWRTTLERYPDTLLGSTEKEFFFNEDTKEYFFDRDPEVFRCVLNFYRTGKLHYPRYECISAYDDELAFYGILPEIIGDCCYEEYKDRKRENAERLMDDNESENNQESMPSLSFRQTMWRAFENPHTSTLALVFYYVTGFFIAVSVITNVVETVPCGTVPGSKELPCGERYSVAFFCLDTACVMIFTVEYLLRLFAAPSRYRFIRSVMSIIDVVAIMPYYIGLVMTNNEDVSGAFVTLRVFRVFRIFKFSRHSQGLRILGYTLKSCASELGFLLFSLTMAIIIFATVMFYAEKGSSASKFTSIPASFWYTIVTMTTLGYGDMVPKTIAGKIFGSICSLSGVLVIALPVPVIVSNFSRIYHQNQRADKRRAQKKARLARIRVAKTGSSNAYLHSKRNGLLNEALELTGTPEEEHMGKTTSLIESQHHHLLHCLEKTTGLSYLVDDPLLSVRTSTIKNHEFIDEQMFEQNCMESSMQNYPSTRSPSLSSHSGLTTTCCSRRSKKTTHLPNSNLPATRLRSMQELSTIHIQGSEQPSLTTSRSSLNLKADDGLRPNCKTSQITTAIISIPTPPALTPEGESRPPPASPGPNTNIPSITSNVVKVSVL

[8] = 100 mg doses for 1 week; cited from earlier work

hHNa ion channel, sequence (Q14524 whole entry): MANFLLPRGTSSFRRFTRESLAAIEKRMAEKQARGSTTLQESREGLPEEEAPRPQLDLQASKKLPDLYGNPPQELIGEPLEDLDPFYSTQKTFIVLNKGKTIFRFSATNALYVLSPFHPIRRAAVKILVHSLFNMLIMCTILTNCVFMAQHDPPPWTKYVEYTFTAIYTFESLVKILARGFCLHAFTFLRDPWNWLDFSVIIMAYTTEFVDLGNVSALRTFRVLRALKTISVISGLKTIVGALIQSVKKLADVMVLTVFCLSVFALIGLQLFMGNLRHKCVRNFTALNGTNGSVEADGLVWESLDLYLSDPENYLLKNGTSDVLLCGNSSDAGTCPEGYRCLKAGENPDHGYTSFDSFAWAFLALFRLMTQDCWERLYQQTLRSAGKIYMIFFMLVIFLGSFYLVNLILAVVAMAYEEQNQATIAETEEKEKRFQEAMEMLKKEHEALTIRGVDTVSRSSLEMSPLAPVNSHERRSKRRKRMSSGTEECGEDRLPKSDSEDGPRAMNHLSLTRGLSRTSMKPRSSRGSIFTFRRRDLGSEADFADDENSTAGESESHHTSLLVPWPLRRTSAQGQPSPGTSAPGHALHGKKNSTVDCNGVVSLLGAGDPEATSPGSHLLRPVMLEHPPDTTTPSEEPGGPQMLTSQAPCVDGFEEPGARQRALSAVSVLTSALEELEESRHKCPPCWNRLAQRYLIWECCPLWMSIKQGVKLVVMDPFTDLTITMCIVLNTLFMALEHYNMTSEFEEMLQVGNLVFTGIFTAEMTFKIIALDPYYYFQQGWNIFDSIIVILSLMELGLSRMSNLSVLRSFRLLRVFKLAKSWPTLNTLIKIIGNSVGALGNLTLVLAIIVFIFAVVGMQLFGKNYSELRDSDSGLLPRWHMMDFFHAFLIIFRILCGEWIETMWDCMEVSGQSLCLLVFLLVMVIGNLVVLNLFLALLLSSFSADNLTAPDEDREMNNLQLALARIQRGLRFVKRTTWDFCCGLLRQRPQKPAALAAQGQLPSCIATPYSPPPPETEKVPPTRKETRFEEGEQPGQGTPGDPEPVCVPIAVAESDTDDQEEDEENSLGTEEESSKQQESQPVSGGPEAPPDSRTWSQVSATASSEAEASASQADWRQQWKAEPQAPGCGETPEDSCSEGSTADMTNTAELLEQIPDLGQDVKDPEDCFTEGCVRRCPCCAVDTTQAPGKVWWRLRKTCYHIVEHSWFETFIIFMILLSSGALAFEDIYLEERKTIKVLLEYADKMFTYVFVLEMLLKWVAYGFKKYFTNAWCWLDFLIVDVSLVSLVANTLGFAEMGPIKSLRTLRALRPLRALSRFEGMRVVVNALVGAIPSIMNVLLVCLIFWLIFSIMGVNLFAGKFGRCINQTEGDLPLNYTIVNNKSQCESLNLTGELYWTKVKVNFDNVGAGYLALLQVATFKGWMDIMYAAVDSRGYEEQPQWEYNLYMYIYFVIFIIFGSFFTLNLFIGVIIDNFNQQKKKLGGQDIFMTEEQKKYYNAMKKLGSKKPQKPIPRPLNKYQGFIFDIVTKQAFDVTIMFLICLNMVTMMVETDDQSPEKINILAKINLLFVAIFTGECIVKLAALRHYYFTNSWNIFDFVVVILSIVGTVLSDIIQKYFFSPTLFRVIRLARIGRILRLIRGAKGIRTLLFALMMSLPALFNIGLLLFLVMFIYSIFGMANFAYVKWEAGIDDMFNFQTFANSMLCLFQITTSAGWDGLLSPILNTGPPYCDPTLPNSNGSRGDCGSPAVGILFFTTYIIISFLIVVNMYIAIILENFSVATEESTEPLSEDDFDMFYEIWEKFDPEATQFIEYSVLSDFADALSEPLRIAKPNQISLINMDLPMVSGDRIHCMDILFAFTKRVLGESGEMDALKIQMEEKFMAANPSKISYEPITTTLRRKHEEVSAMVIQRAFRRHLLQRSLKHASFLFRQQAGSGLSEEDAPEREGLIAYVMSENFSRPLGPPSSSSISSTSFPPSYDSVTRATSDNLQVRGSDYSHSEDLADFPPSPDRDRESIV
T1 sequence (O35505 whole entry): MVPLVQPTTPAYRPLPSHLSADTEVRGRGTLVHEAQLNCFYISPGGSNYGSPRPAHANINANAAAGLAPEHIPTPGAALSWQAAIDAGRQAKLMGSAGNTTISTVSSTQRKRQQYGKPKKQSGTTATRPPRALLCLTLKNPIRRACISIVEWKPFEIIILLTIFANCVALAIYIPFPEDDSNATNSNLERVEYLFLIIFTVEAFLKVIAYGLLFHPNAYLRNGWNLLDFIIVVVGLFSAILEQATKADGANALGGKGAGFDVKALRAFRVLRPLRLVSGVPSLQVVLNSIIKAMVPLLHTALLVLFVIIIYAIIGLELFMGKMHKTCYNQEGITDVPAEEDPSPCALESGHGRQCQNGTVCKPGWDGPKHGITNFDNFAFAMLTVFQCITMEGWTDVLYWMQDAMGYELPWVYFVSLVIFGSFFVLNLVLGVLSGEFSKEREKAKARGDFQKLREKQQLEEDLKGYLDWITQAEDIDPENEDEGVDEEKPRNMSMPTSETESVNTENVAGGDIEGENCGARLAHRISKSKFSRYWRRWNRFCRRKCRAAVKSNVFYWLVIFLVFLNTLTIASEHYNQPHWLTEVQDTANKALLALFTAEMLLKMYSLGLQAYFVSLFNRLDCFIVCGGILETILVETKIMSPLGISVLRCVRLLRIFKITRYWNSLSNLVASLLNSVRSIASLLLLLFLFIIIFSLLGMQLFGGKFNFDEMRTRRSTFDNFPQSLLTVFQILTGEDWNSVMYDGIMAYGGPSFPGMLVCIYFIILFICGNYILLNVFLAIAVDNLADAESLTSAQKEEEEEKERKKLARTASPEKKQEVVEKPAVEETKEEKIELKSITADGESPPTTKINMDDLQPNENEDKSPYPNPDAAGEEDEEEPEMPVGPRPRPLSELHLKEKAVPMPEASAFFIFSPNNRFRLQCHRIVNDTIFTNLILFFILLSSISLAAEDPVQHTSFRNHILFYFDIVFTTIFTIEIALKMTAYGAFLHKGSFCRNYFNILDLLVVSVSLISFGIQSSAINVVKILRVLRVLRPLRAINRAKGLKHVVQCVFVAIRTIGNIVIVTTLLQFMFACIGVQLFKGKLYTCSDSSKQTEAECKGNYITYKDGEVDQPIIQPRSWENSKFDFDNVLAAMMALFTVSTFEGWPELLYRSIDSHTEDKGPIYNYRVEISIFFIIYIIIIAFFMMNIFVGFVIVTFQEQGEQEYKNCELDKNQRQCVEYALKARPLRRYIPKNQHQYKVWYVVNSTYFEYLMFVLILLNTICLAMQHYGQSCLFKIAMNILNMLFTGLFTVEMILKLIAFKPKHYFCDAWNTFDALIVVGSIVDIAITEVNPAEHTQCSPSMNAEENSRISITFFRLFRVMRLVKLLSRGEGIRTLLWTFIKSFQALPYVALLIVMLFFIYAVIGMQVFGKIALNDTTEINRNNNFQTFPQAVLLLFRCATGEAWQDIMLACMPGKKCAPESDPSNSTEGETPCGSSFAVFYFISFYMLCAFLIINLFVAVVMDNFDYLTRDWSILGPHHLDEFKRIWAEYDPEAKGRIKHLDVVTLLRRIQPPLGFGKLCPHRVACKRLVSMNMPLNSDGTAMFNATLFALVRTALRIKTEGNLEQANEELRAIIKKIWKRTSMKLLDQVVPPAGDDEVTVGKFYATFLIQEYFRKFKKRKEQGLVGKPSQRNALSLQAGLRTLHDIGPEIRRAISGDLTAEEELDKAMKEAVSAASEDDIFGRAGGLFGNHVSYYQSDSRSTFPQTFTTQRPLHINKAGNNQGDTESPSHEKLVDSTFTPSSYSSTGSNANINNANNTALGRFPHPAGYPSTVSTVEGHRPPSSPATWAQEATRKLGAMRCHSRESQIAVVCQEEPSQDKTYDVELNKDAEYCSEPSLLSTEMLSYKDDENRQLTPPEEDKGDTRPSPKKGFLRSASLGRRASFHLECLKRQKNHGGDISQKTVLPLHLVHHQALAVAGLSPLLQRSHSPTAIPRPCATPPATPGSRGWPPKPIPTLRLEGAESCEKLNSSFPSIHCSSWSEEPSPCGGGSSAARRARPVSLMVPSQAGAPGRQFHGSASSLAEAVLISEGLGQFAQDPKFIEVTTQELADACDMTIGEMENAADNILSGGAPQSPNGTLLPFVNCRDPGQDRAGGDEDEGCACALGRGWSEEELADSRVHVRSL
hKv1.5 channel, sequence (P22460 whole entry): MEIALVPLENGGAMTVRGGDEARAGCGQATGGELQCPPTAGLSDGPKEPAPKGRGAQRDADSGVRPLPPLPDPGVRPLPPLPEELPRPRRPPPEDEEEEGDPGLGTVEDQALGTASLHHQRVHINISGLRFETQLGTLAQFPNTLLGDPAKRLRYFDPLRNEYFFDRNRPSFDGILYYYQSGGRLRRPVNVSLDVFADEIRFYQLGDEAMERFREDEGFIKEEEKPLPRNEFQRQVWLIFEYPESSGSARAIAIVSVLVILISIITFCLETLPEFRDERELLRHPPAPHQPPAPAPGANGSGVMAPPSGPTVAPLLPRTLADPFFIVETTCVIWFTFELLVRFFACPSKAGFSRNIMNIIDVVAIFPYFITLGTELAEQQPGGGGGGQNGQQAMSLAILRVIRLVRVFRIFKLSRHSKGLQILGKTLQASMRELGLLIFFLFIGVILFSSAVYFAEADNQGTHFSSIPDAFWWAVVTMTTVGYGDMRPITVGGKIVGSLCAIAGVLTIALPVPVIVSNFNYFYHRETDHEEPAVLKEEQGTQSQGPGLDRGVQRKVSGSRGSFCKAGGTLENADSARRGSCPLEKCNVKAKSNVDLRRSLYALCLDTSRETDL

IC50 [1]: 2000 nM | IC50 [2]: 530 nM | IC50 [3]: 4200 nM | Hill coefficient, block of hHNa ([4]; Hill equation fit): greater than 2.0 | IC50 ([4]; read-out: IC50 estimate, block of hHNa (Hill equation fit)): 570 nM | IC50 [7]: 12000 nM
Compound: Fc1ccc(C(OCCN2CCN(CCCc3ccccc3)CC2)c2ccc(F)cc2)cc1 [Vanoxerine, vanoxerine]
IC50 [5]: 150 nM | effect on the duration of the cardiac potential [6]: no effect; also recorded: did not prolong | serum concentration [8]: about 100 nM
